Measured values as given in ChEMBL document CHEMBL1156829 (Proc Natl Acad Sci U S A, 2008).

Columns and labels:
[1] = NOVARTIS: Cytotoxicity against human hepatocellular carcinoma cell line (Huh7); assay type: toxicity, cell-based, Huh-7; conditions: Huh7 cells (hepatocellular carcinoma cell line)
[2] = tested on: Plasmodium falciparum; experiment: NOVARTIS: Inhibition of Plasmodium falciparum 3D7 (drug-susceptible) proliferation in erythrocyte-based infection assay; assay type: functional, organism-based; conditions: Plasmodium falciparum, 3D7
[3] = tested on: Plasmodium falciparum; experiment: NOVARTIS: Inhibition of Plasmodium falciparum W2 (drug-resistant) proliferation in erythrocyte-based infection assay; assay type: functional, organism-based; conditions: Plasmodium falciparum, W2; read-out: EC50

| Compound | CC50 [1] [µM] | EC50 [2] [µM] | EC50 [3] [µM] |
| --- | --- | --- | --- |
| Cc1cc(Nc2ccc(O)cc2)nc2cccc(O)c12 | 52.5 | 0.468 | 0.407 |
| CC(Nc1cc(C)ccn1)=C(C#N)C#N | > 100 | 0.549 | 0.795 |
| CNC(=O)c1ccc(NC(=O)Nc2ccc(C3=NCCCN3)cc2)cc1NC(=O)Nc1ccc(C2=NCCCN2)cc1 | > 10 | 0.126 | 0.0783 |
| COc1cc(N)c(Cl)cc1C(=O)NCC1CCN(c2nc(C)cc(C)n2)CC1 | 64.9 | 0.345 | 0.531 |
| Cc1cc(N2CCCCC2)nc2ccc(NC(=O)c3cccc([N+](=O)[O-])c3)cc12 | > 100 | 0.44 | 0.793 |
| Cc1cc(Cl)ccc1OC(C)C(=O)N1CCc2ccccc21 (stereo not given) | > 100 | 0.632 | 0.812 |
| CCN(CC)S(=O)(=O)c1ccc2[nH]cc(C(=O)NCCCN3CCN(c4ccc(OC)cc4)CC3)c(=O)c2c1 | 51.6 | 2.34 | 0.42 |
| Fc1ccc(Nc2nc(NCc3ccco3)c3ccccc3n2)cc1 | 12.3 | 0.191 | 0.101 |
| CCOC(=O)c1cc(-c2ccc(OC)cc2)n(CCC(=O)NCc2ccc(OC)cc2)c1C | > 100 | 0.987 | 0.781 |
| Nc1c(C(=O)Nc2ccc(Br)cc2)sc2nc3c(c(-c4cccs4)c12)CCC3 | > 100 | 1.04 | 0.776 |
| COc1cc(NC(=O)Cn2c3ccccc3c(=O)c3ccccc32)cc(OC)c1OC | > 100 | 2.73 | 0.816 |
| CCOC(=O)C1=C(C)NC(=Cc2cc(C)n(-c3cccc(Br)c3)c2C)C1=O | > 100 | 2.88 | 0.805 |
| CCCCN(CC)CCNC(=O)c1cc2c(-c3ccc(Cl)cc3)nn(C)c2s1 | 39.8 | 0.0898 | 0.32 |
| O=C(c1ccc(F)cc1Cl)N1CCN(c2nc(-c3cccs3)ns2)CC1 | > 10 | 0.351 | 0.0789 |
| OC(CN1CCN(CC=Cc2ccccc2)CC1)Cn1c2ccc(Br)cc2c2cc(Br)ccc21 (stereo not given) | > 54.1 | 1.96 | 0.426 |
| COc1cc2nc(NCc3ccccc3)n3nc(-c4cccnc4)nc3c2cc1OC | > 100 | > 12.5 | 0.81 |
| COC(=O)[C@@H]1C[C@H](NC(=O)c2ccc(OC)cc2OC)CN1Cc1cccc2ccccc12 | > 10 | > 1.25 | > 0.0809 |
| O=C(NNC(=O)c1csnn1)c1ccc(C(F)(F)F)cc1 | > 100 | 0.641 | 0.792 |
| CC(=O)c1ccc2c3c(onc13)-c1ccccc1C2=O | > 100 | 2.25 | 0.791 |
| COc1ccc2cc(C)c3nnc(SCC(=O)N4CCN(C(=O)c5ccco5)CC4)n3c2c1 | > 100 | 1.13 | 0.796 |
| CCN(CC)CCCN(Cc1cc2ccc(C)cc2[nH]c1=O)C(=S)Nc1cccc(Cl)c1 | 22.1 | 0.7 | 0.176 |
| CCOC(=O)CCC(=O)Oc1ccccc1-c1nc2cc(C)ccn2c1NC(C)(C)CC(C)(C)C | > 10 | 0.658 | 0.0795 |
| CC(C)NCC(O)Cn1c2ccc(Cl)cc2c2cc(Cl)ccc21 (stereo not given) | 4.87 | 0.183 | 0.0389 |
| Cc1cc(Nc2ccc(C)c(C)c2)n2cnnc2n1 | > 73.9 | 0.242 | 0.59 |
| CCOC(=O)C1CCCN(C(=O)c2c(C)oc3c2C(=O)c2ccccc2C3=O)C1 (stereo not given) | 20.4 | 0.171 | 0.163 |

| Compound | CC50 [1] [µM] | EC50 [2] [µM] | EC50 [3] [µM] |
| --- | --- | --- | --- |
| O=c1c([N+](=O)[O-])cccn1Cc1ccc(F)cc1Cl | > 100 | 0.358 | 0.783 |
| CCCCCCC(=O)Oc1ccccc1-c1nc2ccccn2c1NC(C)(C)CC(C)(C)C | > 10 | 1.06 | 0.0783 |
| COc1cccc(-c2cncc(-c3cncc(OC)c3)n2)c1 | > 100 | 0.701 | 0.803 |
| CCCCCCC(=O)Oc1ccccc1-c1nc2cc(C)ccn2c1NC(C)(C)CC(C)(C)C | > 10 | 0.636 | 0.0803 |
| O=C(NC1CCN(CC(O)CN(Cc2ccccc2)S(=O)(=O)c2ccccc2)C1)c1ccccc1 (stereo not given) | > 7.27 | 0.0819 | 0.0569 |
| CCNc1nc(NC(C)(C)C)nc(N2CCCC2)n1 | > 100 | 1.45 | 0.802 |
| COc1ccc(-n2c(CNc3cc(C(F)(F)F)ccc3Cl)nnc2SCc2ccccc2Cl)cc1 | > 100 | 0.728 | 0.801 |
| O=C(Nc1cccc(-c2nc3ccccc3[nH]2)c1)c1cc(=O)c2ccccc2o1 | > 100 | 0.397 | 0.786 |
| CC(=O)N(C1=C(N(C)C)C(=O)c2ccccc2C1=O)c1cccc(F)c1 | 1.36 | 0.0135 | 0.0106 |
| Cc1ccc(NC(=O)ON=C2CCCC2)cc1 | 45.7 | 0.408 | 0.362 |
| CCOC(=O)c1cnc2c(Cl)cccc2c1Nc1cccc(C(C)=O)c1 | > 100 | 0.785 | 0.784 |
| COc1ccc(O)c(C=NNc2nc3ccccc3[nH]2)c1 | 43.9 | 0.576 | 0.355 |
| CCOC(=O)C1=C(C)N=c2sc(=Cc3cc(Br)ccc3O)c(=O)n2C1c1ccc(OC)c(OC)c1 (stereo not given) | > 100 | 2.1 | 0.814 |
| COc1ccccc1-n1c(C(C)N2CCN(C(=O)c3cc([N+](=O)[O-])cc([N+](=O)[O-])c3)C(C)C2)nc2ccccc2c1=O (stereo not given) | > 10 | > 0.603 | 0.0796 |
| O=C1NN(c2ccc(Br)cc2)C(=O)C1=Cc1c(O)ccc2ccccc12 | > 100 | 4.88 | 0.818 |
| COc1ccc(OC)c(NC(=O)COc2cc3ccccc3cc2C(=O)Nc2cc(OC)c(Cl)cc2OC)c1 | > 100 | 1.15 | 0.782 |
| COC(=O)[C@@H]1C[C@H](NC(=O)c2[nH]c3ccc(Cl)cc3c2-c2ccccc2)CN1Cc1cc(OC)cc(OC)c1 | > 100 | > 11.5 | 0.786 |
| COc1ccc(C2N(Cc3ccccc3)c3ccccc3N2Cc2ccccc2)cc1 | 53 | 0.561 | 0.431 |
| Cc1ccc(NC2=C(c3ccc(C(F)(F)F)cc3)C(=O)c3ccccc32)cc1F | > 100 | 0.541 | 0.79 |
| CCn1c(SCc2ccc([N+](=O)[O-])cc2)nc2sc3c(c2c1=O)CCN(C)C3 | > 100 | 0.47 | 0.808 |
| Cc1ccc2ccc(C(Nc3ccccn3)c3ccc(Br)cc3)c(O)c2n1 (stereo not given) | > 100 | 1.22 | 0.8 |
| Cc1c2cnn(CC(=O)O)c(=O)c2c(C)n1Cc1cccc(Cl)c1 | > 100 | > 12.5 | 0.789 |
| N=c1c2c(n(Cc3ccccc3)c3c1CCC3)CCC2 | 41.2 | 0.281 | 0.329 |
| Clc1nc(Nc2ccccc2)nc(N2CCCCC2)n1 | 48.3 | > 12.5 | 0.381 |
| Cc1ccc(C=NNc2ncnc3nc[nH]c23)cc1 | > 100 | 0.697 | 0.804 |
